Test results reported in ChEMBL document CHEMBL1143433, “Interaction of kendomycin and semi-synthetic analogues with the anti-apoptotic protein Bcl-xl” (Bioorg Med Chem Lett, 2008).
Converted amounts (≈) assume the structure as drawn.

How the values were obtained:
[1] = target: T1, Bcl-2-like protein 1 (Homo sapiens, UniProt Q07817); assay: Inhibition of interaction between GST-tagged Bcl-xl and Bak by fluorescence polarization assay
[2] = system: A549; assay: Cytotoxicity against human A549 cells; assay type: functional, cell-based
[3] = Chemical stability assessed as half life by HPLC; assay type: physicochemical
[4] = target: T1, Bcl-2-like protein 1; assay: Inhibition of interaction between GST-tagged Bcl-xl and Bak by surface plasmon resonance assay
[5] = target: T1, Bcl-2-like protein 1; assay: Inhibition of interaction between Bcl-xl and Bak by surface plasmon resonance assay
[6] = system: Staphylococcus aureus; assay: Antibacterial activity against methicillin-resistant Staphylococcus aureus STA MU50; assay type: functional
[7] = system: HepG2; assay: Cytotoxicity against human HepG2 cells; assay type: functional

T1 sequence (Q07817 whole entry): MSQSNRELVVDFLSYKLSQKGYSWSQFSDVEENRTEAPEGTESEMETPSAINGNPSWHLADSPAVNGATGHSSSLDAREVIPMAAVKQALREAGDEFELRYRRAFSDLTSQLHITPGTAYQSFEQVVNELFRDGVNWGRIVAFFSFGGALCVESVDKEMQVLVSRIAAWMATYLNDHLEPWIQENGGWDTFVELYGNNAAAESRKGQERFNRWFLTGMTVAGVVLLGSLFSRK

Row | SMILES | IC50 [1] | IC50 [2] [µM] | Emax [1] [%] | IC50 ([1]; read-out: IC50) [µM] | half-life [3] [h] | Kd [4] [µM] | Kd ([5]; read-out: Kd) [µM] | Kd [5] | MIC [6] [µM] | GI50 [7] [µM]
1 | CO[C@@]12C=C3C(=C(C)C(=O)C(O)=C3[C@@H]3O[C@H](CC[C@H](C)/C=C(\C)C[C@@H](C)C[C@@H]1C)[C@H](C)[C@H](O)[C@H]3C)O2 | Not Active | 9 | – | – | – | – | – | – | – | –
2 | CC1=C2O[C@]34OC(C)(C)O[C@@H]3C2=C(C(=O)C1=O)[C@@H]1O[C@H](CC[C@H](C)/C=C(\C)C[C@@H](C)C[C@@H]4C)[C@H](C)[C@H](O)[C@H]1C | – | 14 | 22 | 9.5 | < 39 | – | – | – | – | –
3 | CC1=C2O[C@]34OC5(CCN(C)CC5)O[C@@H]3C2=C(C(=O)C1=O)[C@@H]1O[C@H](CC[C@H](C)/C=C(\C)C[C@@H](C)C[C@@H]4C)[C@H](C)[C@H](O)[C@H]1C | – | 14 | 66 | 5 | < 23 | 377 | 399 | – | – | –
4 | CC1=C(O)C(=O)C2=C(C1=O)C(O)C(=O)[C@@H](C)C[C@H](C)C/C(C)=C/[C@@H](C)CC[C@H]1O[C@@H]2[C@H](C)[C@@H](O)[C@H]1C (some centres undefined) | – | 25 | 35 | 230 | – | 10800 | – | Not Active | – | –
5 | CC1=C2O[C@]34OC5(CCCCC5)O[C@@H]3C2=C(C(=O)C1=O)[C@@H]1O[C@H](CC[C@H](C)/C=C(\C)C[C@@H](C)C[C@@H]4C)[C@H](C)[C@H](O)[C@H]1C | Not Active | 24 | – | – | – | – | – | – | – | –
6 | Cc1cc2c(C(C)C)c(O)c(O)c(C=O)c2c(O)c1-c1c(C)cc2c(C(C)C)c(O)c(O)c(C=O)c2c1O [GOSSYPOL] | – | – | – | – | – | 1.71 | 338 | – | – | –
7 | CC1=C2O[C@]3(O)C=C2C(=C(O)C1=O)[C@@H]1O[C@H](CC[C@H](C)/C=C(\C)C[C@@H](C)C[C@@H]3C)[C@H](C)[C@H](O)[C@H]1C [KENDOMYCIN] | – | 16 | 70 | 12.3 | < 2 | 528 | 1830 | – | 3.9 (≈ 1.9 µg/mL) | < 0.1
